Reference: US10441589B2, “Combinations and methods comprising a capsid assembly inhibitor” (Novira Therapeutics, Inc., priority 2016, dated 2019)
Where a name gives a salt, the structure may show the parent alone. Read-outs that look alike come from different tables or passages of the source. Marks after values point to notes of the source that are not given here.

Tests used:
[1] = system: HBV DNA replication in HepG2.2.15 cells; test: 6-day HBV antiviral assay in HepG2.2.15 cells, qPCR of HBV DNA in supernatant, MacSynergy II; format: cell-based
Method: The anti-HBV activity of combinations of Compound 2 and Compound 3 with the nucleos(t)ide analogues ETV or TFV was assessed in a 6-day HBV antiviral assay using qPCR for the detection of HBV DNA in the cell culture supernatant as a read-out. The combination effect was analyzed using Mac Synergy II software. The anti-HBV activity of ETV and TFV when tested as single agents in HepG2.2.15 cells as well (Table 14).
During the antiviral testing, HepG2.2.15 cells were cultured in RPMI1640 medium and the FBS was reduced to 2%. Cells were plated at a density of 50.000 cells per well into a 96-well plate.
One day after seeding of the HepG2.2.15 cells, the supernatant was removed and 200 μL medium with test compounds, diluted in a checkerboard fashion, was added to the cells. […] HBV DNA was detected by quantitative real time PCR (qPCR). HBV DNA was quantified by a real-time PCR assay using a LightCycler480 Probes Master kit (Roche) with primers 5′-[sequence]-3′ (sense) and 5′-[sequence]-3′ (antisense, SEQ ID NO: 7). […]
The percentage inhibition values obtained for each combination of compound concentration was calculated as the average of 3 to 5 replicate plates of the same combination per experiment. To robustly identify outliers, the distance from the average of the other 4 replicates was calculated for every data point. […]

wild type HBV = test: Antiviral activity in HepG2 cells transiently transfected with wild-type HBV, intracellular encapsidated HBV DNA; format: cell-based, HBV genotype B; conditions: Hepatitis B virus, 72 h, HepG2 transient transfection, 3 days, mean ± SD, at least three studies, read-out: WT EC50
Method: (§1) In this example, the antiviral activity of Compound 1 was determined using HepG2 liver cells transiently transfected with plasmids expression replication-competent HBV DNA and quantitation of intracellular encapsidated HBV DNA. The antiviral activity of Compound 1 was measured against nucleoside inhibitor sensitive, wild-type HBV, as well as against HBV variants resistant to nucleoside analogs that contain defined amino acid changes in the coding sequence of the reverse transcriptase protein: rtL180M/M204V, rtN236T, rtA181V, rtA181V/N236T, and rtL180M/M204V/N236T.
(§2) Plasmid DNA constructs containing a 1.1×HBV genome under the control of a CMV promoter were previously cloned from serum of an HBV infected patient prior to LMV treatment (Genbank AY220698, Fudan University, China; SEQ ID NO:1, see Table 1) and after development of resistance to LMV (Genbank AY220697, Fudan University, China; SEQ ID NO:2, see Table 1) (Zhang J M et al. 2005. J Med Virol 77: 203-208). Genotyping analysis confirmed that both isolates belong to genotype B HBV, and that the isolate collected after the development of resistance to LMV contained two amino acid changes within the polymerase gene (L180M/M204V). The HBV variant was named rtL180M/M204V to indicate that the amino acid changes were present in the reverse transcriptase (rt) protein. Two additional plasmids were generated by introducing coding sequence changes resulting in the amino acid changes N236T and A181V in the HBV polymerase, respectively. The nucleotide changes were introduced into the wild type genotype B plasmid by site directed mutagenesis according to manufacturer recommendation (Agilent Technologies; Santa Clara, Calif.; Catalog#200519) using the following primers and their corresponding reverse complement sequence (nucleotide change underlined): 5′-CTTTGGGTATACATTTAACCCCTCACAAAAC-3′ (rtN236T; SEQ ID NO:3), 5′-GTCCGTTTCTCTTGGTTCAGTTTACTAGTG-3′ (rtA181V; SEQ ID NO:4). In two additional plasmid constructs, the rtN236T amino acid change was also added into the rtA181V and rtL180M/M204V plasmids to generate the rtA181V/N236T double mutant and rtL180M/M204V/N236T triple mutant HBV variants, respectively. […]
(§3) HepG2 cells were seeded in collagen coated 96-well plates (BIOCOAT™; Fisher Scientific, Catalog#354407) at a density of 20,000 cells/well and allowed to attach overnight at 37° C. and 5% CO2. […] Cells were incubated with compounds for three days, after which intracellular HBV DNA was extracted from cells and levels of secreted Gaussian luciferase was determined from the medium using the Gaussia Flash Luciferase assay kit (THERMO SCIENTIFIC™, Fisher Scientific, Catalog#16158). […]

rtN236T HBV variant = test: Antiviral activity in HepG2 cells transiently transfected with rtN236T HBV variant; format: cell-based, HBV genotype B; conditions: EC50 fold change relative to mean wild-type EC50; mean ± SD
Method: as §1, §2, §3

[2] = Cell viability of primary human hepatocytes (CellTiter-Glo, intracellular ATP); format: cell-based; conditions: human, cryopreserved primary human hepatocytes
Method: (§4) Cryopreserved primary human hepatocytes from individual donors (primary hepatocyte IDs: HuM4038, HuM4055A, and HuM4059) were purchased from Triangle Research Labs (TRL; Research Triangle Park, N.C.). Cells were thawed using hepatocyte thawing medium (TRL, Catalog#MCHT50) according to manufacturers' recommendations. After centrifugation, cells were resuspended in supplemented hepatocyte plating medium (TRL, Catalog#MP250). Cells were plated in collagen Type I coated 96-well plates (Corning; Corning, N.Y.; Catalog#356407) at a density of 40,000 cells per well and maintained in humidified incubators at 37° C. and 5% CO2 overnight prior to addition of test compounds.
(§5) For each donor, three 96-well plates were set up to evaluate the effect of increasing concentrations of Compound 1 either alone or in combination with nucleoside analogs on hepatocyte cell viability. On each plate, cells were incubated with Compound 1 alone as duplicates, or Compound 1 in the presence of LMV, TFV, or ETV as triplicates. The effects of nucleoside analogs alone on hepatocyte cell viability were also determined in triplicates for each donor. Compound 1 was half-log serially diluted in DMSO (Sigma, Catalog #D2650) and added to primary human hepatocytes either alone or in combination with LMV (30 and 300 μM), TFV (30 μM), or ETV (30 μM). Single and combined drugs were added to primary human hepatocytes at a final DMSO (Sigma D2650) concentration of 0.5% across all concentrations. Cells were incubated with compounds for three days, after which medium was removed and fresh medium containing compounds was added and incubated for another three days. As a no compound control, primary human hepatocytes were treated with 0.5% DMSO, and these values were then used to define the 0% inhibition level. Background signal was determined as the mean value from wells containing only culture medium. Cell viability was monitored by using CellTiter-Glo cell viability reagent according to the manufacturer protocol (Promega; Madison, Wis.; G7573). Chemiluminescence signal proportional to the amount of cellular ATP was measured by using the Victor X4 plate reader (Perkin Elmer; Waltham, Mass.). The mean background signal from the medium only wells was subtracted from all other samples, and percent inhibition was calculated using equation E1 (as in Example 1): % inhibition=(DMSOave−Xi)/DMSOave×100% (E1):
(§6) where DMSOave is the mean signal calculated from the wells that were treated with 0.5% DMSO control (0% inhibition control) and X, is the signal measured from the individual wells. CC50 values were determined from the % inhibition data obtained at different compound concentrations by non-linear fitting using Graphpad Prism software and equation E3, in cases were % inhibition values exceeded 50% at the highest concentration tested. Y=Ymin+(Ymax−Yin)/(1+10^(LogCC50−X)×HillSlope) (E3):
(§7) where Y represents percent inhibition values and X represents the logarithm of compound concentrations.

[3] = system: primary human hepatocytes; test: as above; format: cell-based; conditions: 6 days; for cell viability at single concentrations: 30 or 300 μM LMV, 30 μM TFV, 30 μM ETV, three donors
Method: as §4, §5, §6, §7

[4] = system: rtL180M/M204V HBV variant; test: Antiviral activity in HepG2 cells transiently transfected with rtL180M/M204V HBV variant; format: cell-based, HBV genotype B; conditions: for Fold Change rtL180M/M204V: EC50 fold change relative to mean wild-type EC50, mean ± SD
Method: as §1, §2, §3

[5] = system: rtA181V/N236T HBV variant; test: Antiviral activity in HepG2 cells transiently transfected with rtA181V/N236T HBV variant; format: cell-based, HBV genotype B; conditions: EC50 fold change relative to mean wild-type EC50; mean ± SD
Method: as §1, with “rtL180M/M204V/N236T. […]” for “rtL180M/M204V/N236T.”
as §3

rtA181V HBV variant = test: Antiviral activity in HepG2 cells transiently transfected with rtA181V HBV variant; format: cell-based, HBV genotype B; conditions: for Fold Change rtA181V: EC50 fold change relative to mean wild-type EC50, mean ± SD
Method: as §1
(§8) Plasmid DNA constructs containing a 1.1×HBV genome under the control of a CMV promoter were previously cloned from serum of an HBV infected patient prior to LMV treatment (Genbank AY220698, Fudan University, China; SEQ ID NO:1, see Table 1) and after development of resistance to LMV (Genbank AY220697, Fudan University, China; SEQ ID NO:2, see Table 1) (Zhang J M et al. 2005. J Med Virol 77: 203-208). Genotyping analysis confirmed that both isolates belong to genotype B HBV, and that the isolate collected after the development of resistance to LMV contained two amino acid changes within the polymerase gene (L180M/M204V). The HBV variant was named rtL180M/M204V to indicate that the amino acid changes were present in the reverse transcriptase (rt) protein. Two additional plasmids were generated by introducing coding sequence changes resulting in the amino acid changes N236T and A181V in the HBV polymerase, respectively. […]
as §3

[6] = system: rtL180M/M204V/N236T HBV variant; test: Antiviral activity in HepG2 cells transiently transfected with rtL180M/M204V/N236T HBV variant; format: cell-based, HBV genotype B; conditions: EC50 fold change relative to mean wild-type EC50; mean ± SD
Method: as §1, §8, §3

[7] = donor HuM4038, first HuM4038 column of Table 3, 6 days, read-out: HuM4038 CC50
[8] = donor HuM4038, second HuM4038 column of Table 3, 6 days, read-out: HuM4038 CC50
[9] = donor HuM4055A, 6 days, read-out: HuM4055A CC50
[10] = donor HuM4059, 6 days, read-out: HuM4059 CC50

C=C1[C@H](CO)[C@@H](O)C[C@@H]1n1cnc2c(=O)[nH]c(N)nc21 [ETV, entecavir]
EC50 ([1]; Hepatitis B virus, HepG2.2.15, read-out: Median EC50): 0.07 nM
EC50 (wild type HBV): 0.0014 ± 0.0004 µM
Fold Change rtN236T (rtN236T HBV variant): 0.67 ± 0.22^ns
CC50 at 6 days [2, 7]: > 30 µM
CC50 at 6 days [2, 8]: > 30 µM
CC50 at 6 days [2, 9]: > 30 µM
CC50 at 6 days [2, 10]: > 30 µM
cell viability at single concentrations [3]: No reduction of cell viability

CC(C)OC(=O)OCOP(=O)(CO[C@H](C)Cn1cnc2c(N)ncnc21)OCOC(=O)OC(C)C [TDF, tenofovir disoproxil fumarate]
Fold Change rtL180M/M204V [4]: 1.1 ± 0.3^ns
EC50 ([4]; Hepatitis B virus, HepG2, read-out: mean EC50 against rtL180M/M204V variant): 0.034 µM
EC50 (wild type HBV): 0.032 µM
Fold Change rtA181V/N236T [5]: 2.8 ± 1.4^b
Fold Change rtA181V (rtA181V HBV variant): 1.4 ± 0.05^ns
EC50 (rtA181V HBV variant; Hepatitis B virus, HepG2, read-out: mean EC50 against rtA181V variant): 0.043 µM
Fold Change rtN236T (rtN236T HBV variant): 2.2 ± 1.0^b
Fold Change rtL180M/M204V/N236T [6]: 2.9 ± 1.5^b

Nc1ccn([C@@H]2CS[C@H](CO)O2)c(=O)n1 [LMV, Lamivudine]
Fold Change rtL180M/M204V [4]: >190
EC50 (wild type HBV): 0.53 µM
Fold Change rtN236T (rtN236T HBV variant): 1.0 ± 0.5^ns
CC50 at 6 days [2, 7]: > 30 µM
CC50 at 6 days [2, 8]: > 300 µM
CC50 at 6 days [2, 9]: > 300 µM
CC50 at 6 days [2, 10]: > 300 µM
cell viability at single concentrations [3]: No reduction of cell viability
Fold Change rtL180M/M204V/N236T [6]: >190

O=C(Nc1cc(F)c(F)c(F)c1)c1ccc(F)c(S(=O)(=O)N2CCC(O)CC2)c1 [Compound 1, 4-fluoro-3-((4-hydroxypiperidin-1-yl)sulfonyl)-N-(3,4,5,-trifluorophenyl)benzamide]
Fold Change rtL180M/M204V [4]: 1.3 ± 0.6^ns
EC50 (wild type HBV): 0.31 ± 0.1 µM
Fold Change rtA181V/N236T [5]: 0.85 ± 0.26^ns
Fold Change rtA181V (rtA181V HBV variant): 0.82 ± 0.19^ns
Fold Change rtN236T (rtN236T HBV variant): 0.85 ± 0.40^ns
CC50 at 6 days ([2]; Table 4, alone, donor HuM4038, read-out: Cmpd (I) CC50): 26 µM
CC50 at 6 days ([2]; Table 4, alone, donor HuM4055A, read-out: Cmpd (I) CC50): 19 µM
CC50 at 6 days ([2]; Table 4, alone, donor HuM4059, read-out: Cmpd (I) CC50): 83 µM
CC50 at 6 days ([2]; Table 5, alone, donor HuM4038, read-out: Cmpd (I) CC50): 16 µM
CC50 at 6 days ([2]; Table 5, alone, donor HuM4055A, read-out: Cmpd (I) CC50): 19 µM
CC50 at 6 days ([2]; Table 5, alone, donor HuM4059, read-out: Cmpd (I) CC50): 83 µM
CC50 at 6 days ([2]; Table 6, alone, donor HuM4038, read-out: Cmpd (I) CC50): 16 µM
CC50 at 6 days ([2]; Table 6, alone, donor HuM4055A, read-out: Cmpd (I) CC50): 19 µM
CC50 at 6 days ([2]; Table 6, alone, donor HuM4059, read-out: Cmpd (I) CC50): 83 µM
CC50 at 6 days [2, 7]: 16 µM
CC50 at 6 days [2, 8]: 26 µM
CC50 at 6 days [2, 9]: 19 µM
CC50 at 6 days [2, 10]: 82 µM
CC50 at 6 days ([2]; range over three donors (HuM4038, HuM4055A, HuM4059), 6 days, read-out: CC50 values, range): 16 to 82 µM
Fold Change rtL180M/M204V/N236T [6]: 1.4 ± 0.5^ns

C[C@H](Cn1cnc2c(N)ncnc21)OCP(=O)(O)O [TFV, tenofovir]
EC50 ([1]; single agents in HepG2.2.15 cells, read-out: Median EC50): 15 nM
cell viability at single concentrations [3]: No reduction of cell viability
CC50 ([3]; donor HuM4038, first HuM4038 column of Table 3, read-out: HuM4038 CC50): > 30 µM
CC50 ([3]; donor HuM4038, second HuM4038 column of Table 3, read-out: HuM4038 CC50): > 30 µM
CC50 ([3]; donor HuM4055A, read-out: HuM4055A CC50): > 30 µM
CC50 ([3]; donor HuM4059, read-out: HuM4059 CC50): > 30 µM
